Source: patent publication US4345938A, “Herbicidal 2-haloacetanilides” (Monsanto Company, priority 1980, dated 1982)
Like-named read-outs stand apart in the source and are kept apart here.

Key:
Assay type in all cases: in vivo
Rice = assay: Field transplant rice test, applied 9 DAT, rice injury; conditions: Oryza sativa, 216 h, read-out: Percent Inhibition, Rice; for inhibition at 375 g/ha: 0.375 Kg/Ha; for inhibition at 750 g/ha: 0.75 Kg/Ha; for inhibition at 1500 g/ha: 1.5 Kg/Ha; for inhibition at 3000 g/ha: 3.0 Kg/Ha
Description: (§1) In further comparative tests, a preferred compound of this invention (Example 1) was tested in the field with prior art Compounds A-D. These tests were conducted under conditions reflecting herbicide application times generally favorable to all herbicides in the test. The timing of application of herbicides to transplant rice is very important, whether, as in some instances, prior to transplanting the rice; in other instances, at the time of transplanting or else after transplanting. Application times are conventionally referred to as "days before transplant" (DBT) or "days after transplant" ("DAT"). The field test data in Table IV was obtained from a test in which the herbicides were applied at the time of transplant, i.e., "0 DAT", with observations being made weekly up to six weeks after transplant ("WAT") beginning at two weeks after transplant; for illustrative and representative purposes, only the early, middle and late period observations, i.e., 2 WAT, 4 WAT and 6 WAT, are shown in Table IV. The data in Table IV is for rates of application common to all herbicides in the test, i.e., from 3.0 kg/ha (2.67 lb/A) down to 0.375 kg/ha (0.34 lb/A). All herbicides were applied at their actual or expected use rates, i.e., as granules containing 2.5% by weight herbicide for the compound of Example 1, Compounds B, C and D and 5.0% by weight for Compound A.
(§2) In Table V are presented field data showing the relative performance of the compound of Example 1 and Compounds A-D applied 9 DAT, with observations being made weekly from 3 WAT to 7 WAT; again, for illustrative and representative purposes, only the early, middle and late period observations are reported in Table V, the herbicide rates and concentrations of active ingredients the same as is shown in Table IV.

Echinochloa crus-galli [1] = assay: Field transplant rice test, applied 9 DAT, EC; conditions: for inhibition at 375 g/ha / inhibition at 750 g/ha / inhibition at 1500 g/ha / inhibition at 3000 g/ha: Echinochloa crus-galli, 216 h, read-out: Percent Inhibition, EC; for inhibition at 375 g/ha: 0.375 Kg/Ha; for inhibition at 750 g/ha: 0.75 Kg/Ha; for inhibition at 1500 g/ha: 1.5 Kg/Ha; for inhibition at 3000 g/ha: 3.0 Kg/Ha
From the text: (§3) In the discussion of data below, occasional reference is made to herbicide application rates symbolized as "GR15 " and "GR85 "; these rates are given in kilograms per hectare (kg/ha) which are convertible into pounds per acre (lbs/A) by dividing the kg/ha rate by 1.12.
(§4) A further guide to the effectiveness of a chemical as a selective herbicide is the "selectivity factor" ("SF") for a herbicide in given crops and weeds. The selectivity factor is a measure of the relative degree of crop safety and weed injury and is expressed in terms of the GR15 /GR85 ratio, i.e., the GR15 rate for the crop divided by the GR85 rate for the weed, both rates in kg/ha (lb/A.)
(§5) The test data in Table III for all compounds was obtained under identical test conditions. The weeds used in the tests herein have the following abbreviations in the tables: Echinochloa crus-galli (EC), Monochloria vaginalis (MV), Cyperus Serotinus (CS), Eleocharis Kuroguwai (EK) and Sagittaria trifolia (ST).
as §1, §2

Monochoria vaginalis = assay: Field transplant rice test, applied 9 DAT, MV; conditions: for inhibition at 375 g/ha / inhibition at 750 g/ha / inhibition at 1500 g/ha / inhibition at 3000 g/ha: Pontederia vaginalis, 216 h, read-out: Percent Inhibition, MV; for inhibition at 375 g/ha: 0.375 Kg/Ha; for inhibition at 750 g/ha: 0.75 Kg/Ha; for inhibition at 1500 g/ha: 1.5 Kg/Ha; for inhibition at 3000 g/ha: 3.0 Kg/Ha
From the text: as §3, §4, §5, §1, §2

Echinochloa crus-galli [2] = assay: Field transplant rice test, applied 0 DAT, EC; conditions: 0 h, read-out: Percent Inhibition, EC; for inhibition at 375 g/ha: 0.375 Kg/Ha; for inhibition at 750 g/ha: 0.75 Kg/Ha; for inhibition at 1500 g/ha: 1.5 Kg/Ha; for inhibition at 3000 g/ha: 3.0 Kg/Ha
Description: as §5, §1

Sagittaria trifolia = assay: Field transplant rice test, applied 0 DAT, ST; conditions: 0 h, read-out: Percent Inhibition, ST; for inhibition at 375 g/ha: 0.375 Kg/Ha; for inhibition at 750 g/ha: 0.75 Kg/Ha; for inhibition at 1500 g/ha: 1.5 Kg/Ha; for inhibition at 3000 g/ha: 3.0 Kg/Ha
Description: as §5, §1

Compound: CCCCOCCN(C(=O)CCl)c1c(CC)cccc1CC [Compound B, 2',6'-diethyl-N-(n-butoxyethyl)-2-chloroacetanilide]
- inhibition at 375 g/ha (Rice; 3 WAT): 12%
- inhibition at 375 g/ha (Rice; 5 WAT): 0%
- inhibition at 375 g/ha (Rice; 7 WAT): 5%
- inhibition at 750 g/ha (Rice; 3 WAT): 12%
- inhibition at 750 g/ha (Rice; 5 WAT): 5%
- inhibition at 750 g/ha (Rice; 7 WAT): 3%
- inhibition at 1500 g/ha (Rice; 3 WAT): 10%
- inhibition at 1500 g/ha (Rice; 5 WAT): 2%
- inhibition at 1500 g/ha (Rice; 7 WAT): 5%
- inhibition at 3000 g/ha (Rice; 3 WAT): 12%
- inhibition at 3000 g/ha (Rice; 5 WAT): 5%
- inhibition at 3000 g/ha (Rice; 7 WAT): 2%
- inhibition at 375 g/ha (Echinochloa crus-galli [1]; 3 WAT): 57%
- inhibition at 375 g/ha (Echinochloa crus-galli [1]; 5 WAT): 55%
- inhibition at 375 g/ha (Echinochloa crus-galli [1]; 7 WAT): 47%
- inhibition at 750 g/ha (Echinochloa crus-galli [1]; 3 WAT): 68%
- inhibition at 750 g/ha (Echinochloa crus-galli [1]; 5 WAT): 53%
- inhibition at 750 g/ha (Echinochloa crus-galli [1]; 7 WAT): 50%
- inhibition at 1500 g/ha (Echinochloa crus-galli [1]; 3 WAT): 90%
- inhibition at 1500 g/ha (Echinochloa crus-galli [1]; 5 WAT): 80%
- inhibition at 1500 g/ha (Echinochloa crus-galli [1]; 7 WAT): 85%
- inhibition at 3000 g/ha (Echinochloa crus-galli [1]; 3 WAT): 95%
- inhibition at 3000 g/ha (Echinochloa crus-galli [1]; 5 WAT): 95%
- inhibition at 3000 g/ha (Echinochloa crus-galli [1]; 7 WAT): 92%
- selectivity factor (GR15/GR85), EC in transplant rice (Echinochloa crus-galli [1]; between 3 WAT and 7 WAT): 2
- inhibition at 375 g/ha (Monochoria vaginalis; 3 WAT): 100%
- inhibition at 375 g/ha (Monochoria vaginalis; 5 WAT): 95%
- inhibition at 375 g/ha (Monochoria vaginalis; 7 WAT): 77%
- inhibition at 750 g/ha (Monochoria vaginalis; 3 WAT): 97%
- inhibition at 750 g/ha (Monochoria vaginalis; 5 WAT): 98%
- inhibition at 750 g/ha (Monochoria vaginalis; 7 WAT): 88%
- inhibition at 1500 g/ha (Monochoria vaginalis; 3 WAT): 98%
- inhibition at 1500 g/ha (Monochoria vaginalis; 5 WAT): 100%
- inhibition at 1500 g/ha (Monochoria vaginalis; 7 WAT): 100%
- inhibition at 3000 g/ha (Monochoria vaginalis; 3 WAT): 100%
- inhibition at 3000 g/ha (Monochoria vaginalis; 5 WAT): 100%
- inhibition at 3000 g/ha (Monochoria vaginalis; 7 WAT): 97%
- selectivity factor (GR15/GR85), MV in transplant rice (Monochoria vaginalis; between 3 WAT and 7 WAT): 8
- inhibition at 375 g/ha (Echinochloa crus-galli [2]; 2 WAT): 55%
- inhibition at 375 g/ha (Echinochloa crus-galli [2]; 4 WAT): 68%
- inhibition at 375 g/ha (Echinochloa crus-galli [2]; 6 WAT): 37%
- inhibition at 750 g/ha (Echinochloa crus-galli [2]; 2 WAT): 87%
- inhibition at 750 g/ha (Echinochloa crus-galli [2]; 4 WAT): 93%
- inhibition at 750 g/ha (Echinochloa crus-galli [2]; 6 WAT): 88%
- inhibition at 1500 g/ha (Echinochloa crus-galli [2]; 2 WAT): 90%
- inhibition at 1500 g/ha (Echinochloa crus-galli [2]; 4 WAT): 98%
- inhibition at 1500 g/ha (Echinochloa crus-galli [2]; 6 WAT): 98%
- inhibition at 3000 g/ha (Echinochloa crus-galli [2]; 2 WAT): 97%
- inhibition at 3000 g/ha (Echinochloa crus-galli [2]; 4 WAT): 100%
- inhibition at 3000 g/ha (Echinochloa crus-galli [2]; 6 WAT): 100%
- inhibition at 375 g/ha (Sagittaria trifolia; 2 WAT): 27%
- inhibition at 375 g/ha (Sagittaria trifolia; 4 WAT): 10%
- inhibition at 375 g/ha (Sagittaria trifolia; 6 WAT): 5%
- inhibition at 750 g/ha (Sagittaria trifolia; 2 WAT): 27%
- inhibition at 750 g/ha (Sagittaria trifolia; 4 WAT): 15%
- inhibition at 750 g/ha (Sagittaria trifolia; 6 WAT): 7%
- inhibition at 1500 g/ha (Sagittaria trifolia; 2 WAT): 62%
- inhibition at 1500 g/ha (Sagittaria trifolia; 4 WAT): 12%
- inhibition at 1500 g/ha (Sagittaria trifolia; 6 WAT): 7%
- inhibition at 3000 g/ha (Sagittaria trifolia; 2 WAT): 32%
- inhibition at 3000 g/ha (Sagittaria trifolia; 4 WAT): 30%
- inhibition at 3000 g/ha (Sagittaria trifolia; 6 WAT): 13%
